Assay results published in PMC4021201, “Repositioning: the fast track to new anti-malarial medicines?” (Malaria Journal, 2014).
Values joined by “and” are separate entries in the source; they are usually repeats but may differ in a detail not shown here. Identical values can stand only once. Like-named read-outs stand apart in the source and are kept apart here.

Assays:
[1] = system: P. falciparum 3D7A strain; test: Whole-cell [3H] hypoxanthine incorporation assay (GSK); assay type: cell-based, Plasmodium falciparum; details: mean of three independent measures
Description: GSK Tres Cantos used a whole-cell [^3H] hypoxanthine radioisotope incorporation assay to determine per cent parasite inhibition at 48 hours and 96 hours. Plasmodium falciparum 3D7A strain (Malaria Research and Reference Reagent Resource Center MR4; [32]) was maintained as described previously. Parasite growth inhibition assays and EC50 determination were carried out following standard methods. Three independent experiments were conducted for each time duration and test compound.
GlaxoSmithKline, Tres Cantos. A whole-cell [^3H]hypoxanthine radioisotope incorporation assay was performed to determine percent parasite inhibition at 48 h and 96 h. Plasmodium falciparum 3D7A strain (Malaria Research and Reference Reagent Resource Center MR4; http://www.mr4.org), was maintained in human erythrocytes (Transfusions Blood Bank, Madrid) with Albumax II medium, as previously described. Parasite growth inhibition assays and EC50 determination were carried out following standard methods. Briefly, cultures with 0.5% parasitemia and 2.5% hematocrit were incubated with the 2 μM of test drug for 48 h or 96 h. [^3H]hypoxanthine (0.8 μCi/mL) in 10 μL of RPMI was added 24 h before parasites were harvested (Cell Harvester 96™, TOMTEC, Hamden, CT). Incorporated radioactivity was quantified with a Wallac MicroBeta® TriLux (Model 1450 LS, PerkinElmer). Three independent experiments were conducted for each time duration and test compound.

[2] = Pharmacokinetics in P. falciparum-infected humanized mice; details: for Cmax / Tmax: NOD-scid IL-2Rγ^null, mouse; for Cmax / Tmax / AUC (0–t): whole blood; for DNAUC(0–t): dose-normalized AUC(0–t); for DNAUC(0–t) / AUC (0–t): mean (SD)
Description: The pharmacokinetics of compounds after oral administration was determined concurrently in the same mice used for the therapeutic efficacy assay. Samples were taken at 0.25, 0.5, 1, 3, 6, 8, and 24 hours after the first dose. Compound levels were measured in 25 μL blood samples that were mixed with 25 μL of saponin (0.1% in water) and processed under standard liquid–liquid extraction conditions [39]. Pharmacokinetic parameters were calculated using WinNonlin 5.2 non-compartmental analysis.

[3] = system: P. falciparum Pf3D7^0087/N9; test: Plasmodium falciparum huSCID humanized mouse model, four-day test; details: for AUCED90: blood exposure needed to inhibit parasitaemia at day 7 by 90% vs vehicle; for reduction of parasitaemia versus vehicle: 10, 30 mg/kg sc target doses, up to maximum tolerated dose
Description: In vivo testing using this model was performed by GSK at Tres Cantos, against P. falciparum 3D7 (in vivo strain Pf3D7^0087/N9generated by GSK using Pf3D7 obtained from Eduardo Dei-Cas, Institute Pasteur, Lille, France [36]) growing in peripheral blood of female NOD-scid IL-2Rγ^null mice engrafted with human erythrocytes, i e, a ‘humanized’ mouse model, following published protocols [36, 37]. Briefly, animals were infected intravenously with 20×10^6 infected erythrocytes on day 0. […] Dosing was initiated at the maximum tolerated dose in mice on day 3 after infection and continued once daily for four days. Each experimental group was n = 3 mice unless otherwise stated. Control animals received vehicle only and a quality control assay used chloroquine at target doses of 3 mg/kg and 7 mg/kg. Venous blood samples for parasitology (2 μL) were taken at days 3, 5, and 7 after infection. Anti-malarial efficacy was assessed using a standard four-day test (i e, at day 7) and blood parasitaemia was measured by fluorescence-activated cell sorting (FACS) analysis [38]. The limit of detection (per cent of P. falciparum) was 0.01%. The number of parasites ×10^6 cells was recorded and data were analysed by non-linear fitting to a logistic equation of log10 (per cent parasitaemia at day 7 after infection) versus the dose level administered.
Per cent parasitaemia at day 7 after infection in treated versus control animals was analysed using a one factor ANOVA with Tukey’s post-test analysis. […] ED90 was calculated similarly. Analysis was performed using WinNonlin 5.2 and GraphPad Prism 5.0.

[4] = system: P. falciparum K1; test: SYBR I dye DNA staining assay (Pfizer), P. falciparum K1
Description: (§1) Cultures of P. falciparum 3D7 and K1 (both from David Baker, LSHTM) were maintained in O+ human erythrocytes (Research Red Cells and Blood Transfusion Service). 384-well assay plates contained 250 nL of compound at a serial dilution of 1:3 in 100% DMSO, starting from 200 µM (in the plate i.e. 20 µM final) and minimum and maximum controls. After addition of 50 μL of infected erythrocytes per well, plates were incubated at 37°C for three days in 5% CO2, 5% O2 and 90% N2. […] Percent anti-malarial activity was calculated relative to the minimum and maximum controls for each of the 11 drug concentrations and EC50 values determined from the resulting data plot.

[5] = set-up: method as in unpublished data provided by Pfizer Inc; details: ref unpublished data provided by Pfizer Inc; cited from earlier work
[6] = system: P. falciparum 3D7; test: SYBR I dye DNA staining assay (Pfizer), P. falciparum 3D7
Description: as §1

[7] = system: P. falciparum K1; test: SYBR I dye DNA staining assay (SJCRH), P. falciparum K1; details: Plasmodium falciparum, K1, 72 h, read-out: EC50 K1
Description: (§2) SJCRH used the SYBR® I dye DNA staining assay, which measures proliferation of P. falciparum in human erythrocytes [27]. Plasmodium falciparum strains 3D7 (chloroquine-sensitive) and K1 (chloroquine-resistant) (American Type Culture Collection [ATCC], Manassas, VA, USA) were maintained using established methods [28]. The assay method is as previously described [29]. […] EC50 values were calculated with the robust investigation of screening experiments (RISE) algorithm with a four-parameter logistic equation.
(§3) This group used the SYBR® I dye DNA staining assay, which measures proliferation of P. falciparum in human erythrocytes [1]. Plasmodium falciparum strains 3D7 (chloroquine-sensitive) and K1 (chloroquine-resistant) (American Type Culture Collection [ATCC], Manassas, VA) were maintained in group O? erythrocytes (Key Biologics, LLC, Memphis, TN) using established methods [2]. Serial dilutions of the test compound in DMSO were prepared to provide 10 concentrations for each compound. […] After addition of 10 µL mixed DNA dye solution in PBS per test well (10× SYBR® I, [Invitrogen, Carlsbad, CA]), 0.5% [vol/vol] Triton X-100, 0.5 mg/mL saponin), plates were shaken for 1 min at 750 rpm and incubated in the dark for 90 min. Fluorescence was measured with an EnVision®spectrophotometer (PerkinElmer, Waltham, MA) [3]. […] EC50 values were calculated with the robust investigation of screening experiments (RISE) algorithm with a four-parameter logistic equation.

[8] = system: P. falciparum 3D7; test: SYBR I dye DNA staining assay (SJCRH), P. falciparum 3D7; details: Plasmodium falciparum, 3D7, 72 h, read-out: EC50 3D7
Description: as §2, §3

[9] = biological target: hERG (Homo sapiens, UniProt Q12809); test: Independently run hERG assay
hERG, sequence (Q12809 whole entry): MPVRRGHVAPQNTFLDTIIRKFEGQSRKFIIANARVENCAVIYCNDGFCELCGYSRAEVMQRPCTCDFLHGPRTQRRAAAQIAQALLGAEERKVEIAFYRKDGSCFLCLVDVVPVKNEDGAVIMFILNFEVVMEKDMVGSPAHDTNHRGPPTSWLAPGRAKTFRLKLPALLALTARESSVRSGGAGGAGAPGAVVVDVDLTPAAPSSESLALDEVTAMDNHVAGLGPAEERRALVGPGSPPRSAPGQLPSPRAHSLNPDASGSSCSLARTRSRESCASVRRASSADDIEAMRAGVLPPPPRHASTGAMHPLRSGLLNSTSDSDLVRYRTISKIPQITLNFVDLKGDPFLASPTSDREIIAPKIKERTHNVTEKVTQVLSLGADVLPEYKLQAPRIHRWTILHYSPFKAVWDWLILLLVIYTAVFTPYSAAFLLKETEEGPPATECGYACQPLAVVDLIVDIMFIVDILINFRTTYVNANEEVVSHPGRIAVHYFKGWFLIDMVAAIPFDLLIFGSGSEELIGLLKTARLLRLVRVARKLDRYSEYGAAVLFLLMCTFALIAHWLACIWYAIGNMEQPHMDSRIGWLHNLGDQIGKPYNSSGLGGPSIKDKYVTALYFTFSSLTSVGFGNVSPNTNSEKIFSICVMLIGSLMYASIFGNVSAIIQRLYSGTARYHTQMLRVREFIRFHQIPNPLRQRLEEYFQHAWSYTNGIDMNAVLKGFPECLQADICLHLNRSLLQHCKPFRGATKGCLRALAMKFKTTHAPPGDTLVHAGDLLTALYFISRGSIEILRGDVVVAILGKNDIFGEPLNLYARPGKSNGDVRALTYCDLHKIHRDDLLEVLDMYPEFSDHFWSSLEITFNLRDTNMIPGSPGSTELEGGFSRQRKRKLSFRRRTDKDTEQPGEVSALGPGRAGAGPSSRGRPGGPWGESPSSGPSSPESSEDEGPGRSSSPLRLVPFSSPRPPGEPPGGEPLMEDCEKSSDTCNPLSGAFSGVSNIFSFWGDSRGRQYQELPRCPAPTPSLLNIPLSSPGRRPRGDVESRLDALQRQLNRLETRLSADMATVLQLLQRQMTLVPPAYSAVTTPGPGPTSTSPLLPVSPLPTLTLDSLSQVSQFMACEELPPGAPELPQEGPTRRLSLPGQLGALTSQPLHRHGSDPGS

[10] = set-up: method as in data provided by Pfizer; details: human, single doses from 10 mg to 480 mg; ref data provided by Pfizer; cited from earlier work
[11] = target dose 50 mg/kg oral (experimental 36 mg/kg)
[12] = parasitaemia at day 7 after infection, once daily for four days, mean (95% CI)
[13] = Plasmodium falciparum, K1, read-out: EC50 K1
[14] = Plasmodium falciparum, 3D7, read-out: EC50 3D7
[15] = target dose 10 mg/kg subcutaneous (experimental 6.4 CEP-701, 8.3 CEP-1347)
[16] = target dose 30 mg/kg subcutaneous (experimental 15.0 CEP-701, 22.0 CEP-1347)

COc1ccc(OC)c(Cc2cnc3nc(N)nc(N)c3c2C)c1 [Piritrexim]
IC50 ([1]; Plasmodium falciparum): 11 ± 1 nM

CCN(CC)CCN(Cc1ccc(-c2ccc(C(F)(F)F)cc2)cc1)C(=O)Cn1cc(Cc2cnn(C)c2)c(=O)nc1SCc1ccc(F)cc1 [SB-435495]
IC50 [1]: 1130 ± 146 nM

C/C=C/C[C@@H](C)C(=O)[C@H]1C(=O)N[C@@H](C(C)C)C(=O)N(C)CC(=O)N(C)[C@@H](CC(C)C)C(=O)N[C@@H](C(C)C)C(=O)N(C)[C@@H](CC(C)C)C(=O)N[C@@H](C)C(=O)N[C@H](C)C(=O)N(C)[C@@H](CC(C)C)C(=O)N(C)[C@@H](CC(C)C)C(=O)N(C)[C@@H](C(C)C)C(=O)N1C [PSC-833, valspodar]
Cmax ([2]; po, 50 mg/kg): 1390 ng/mL | Tmax ([2]; po, 50 mg/kg): 3.3 h | Cmax ([2]; po, 100 mg/kg): 1010 ng/mL | Tmax ([2]; po, 100 mg/kg): 5.33 h | Cmax ([2]; po, 200 mg/kg): 910 ng/mL | Tmax ([2]; po, 200 mg/kg): 2 h | DNAUC(0–t) [2, 11]: 0.36 (0.082) μg · h · mL^−1 · day^−1 | DNAUC(0–t) ([2]; target dose 100 mg/kg oral): 0.13 (0.04) μg · h · mL^−1 · day^−1 | DNAUC(0–t) ([2]; target dose 200 mg/kg oral): 0.065 (0.03) μg · h · mL^−1 · day^−1 | AUC (0–t) [2, 11]: 12.90 (2.97) μg · h · mL | AUC (0–t) ([2]; target dose 100 mg/kg oral): 12.26 (4.25) μg · h · mL | AUC (0–t) ([2]; target dose 200 mg/kg oral): 13.05 (6.05) μg · h · mL | AUCED90 [3]: >17.33 μg · h · mL^−1 · day^−1 | ED90 [3, 12]: >200 mg/kg | ED90 ([3]; parasitaemia at day 7 after infection, once daily for four days, mean (95% CI), listed as Valspodar): > 200 mg/kg

CC[C@@]1(O)C(=O)OCc2c1cc1n(c2=O)Cc2c-1nc1cc3c(cc1c2CN1CCN(C)CC1)OCCO3 [Lurtotecan]
IC50 ([1]; Plasmodium falciparum): 191 ± 62 nM

COc1ccc(C(=O)c2cn(C(C)C)c3ncnc(N)c23)cc1NC(=O)Nc1ccc(Cl)cc1Cl [CE-245677]
EC50 [4, 13]: 800 nM | human plasma level with significant central nervous system adverse events [5]: ~ 1.5 μM | EC50 [6, 14]: 1100 nM

C[C@]12O[C@H](C[C@]1(O)CO)n1c3ccccc3c3c4c(c5c6ccccc6n2c5c31)CNC4=O [Lestaurtinib]
Cmax ([2]; sc, 10 mg/kg): 630 ng/mL | Tmax ([2]; sc, 10 mg/kg): 0.78 h | Cmax ([2]; sc, 30 mg/kg): 2800 ng/mL | Tmax ([2]; sc, 30 mg/kg): 4 h | DNAUC(0–t) [2, 15]: 0.44 (0.072) μg · h · mL^−1 · day^−1 | DNAUC(0–t) [2, 16]: 1.6 (0.47) μg · h · mL^−1 · day^−1 | AUC (0–t) [2, 15]: 2.8 (0.46) μg · h · mL | AUC (0–t) [2, 16]: 23.8 (6.8) μg · h · mL | EC50 [7]: 340 nM | reduction of parasitaemia versus vehicle [3]: did not reach statistical significance | EC50 [8]: 490 nM

CCNCc1cncc(-c2ccc3[nH]nc(-c4nc5c(F)cc(F)cc5[nH]4)c3c2)c1C [AG-024322]
EC50 ([4]; read-out: EC50 K1, mean (95% CI), Pfizer SYBR I fluorescence assay): 400 nM | EC50 ([6]; read-out: EC50 3D7, mean (95% CI), Pfizer SYBR I fluorescence assay): 700 nM

Cc1nc2cnccc2n1-c1ccc(C(=O)N2CCC(=C3c4ccc(Cl)cc4CCc4cccnc43)CC2)cc1 [UK-112,214]
Cmax ([2]; po, 100 mg/kg): 8610 ng/mL | Tmax ([2]; po, 100 mg/kg): 4 h | Cmax ([2]; po, 300 mg/kg): 17600 ng/mL | Tmax ([2]; po, 300 mg/kg): 3.3 h | DNAUC(0–t) ([2]; target dose 100 mg/kg oral): 0.859 (0.32) μg · h · mL^−1 · day^−1 | DNAUC(0–t) ([2]; target dose 300 mg/kg oral): 1.03 (0.45) μg · h · mL^−1 · day^−1 | AUC (0–t) ([2]; target dose 100 mg/kg oral): 72.1 (2.7) μg · h · mL | AUC (0–t) ([2]; target dose 300 mg/kg oral): 231 (101) μg · h · mL | EC50 [4, 13]: 600 nM | hERG [9]: 2.8 µM | ED50 ([3]; Plasmodium falciparum, in Mus musculus, parasitaemia at day 7 after infection, once daily for four days, mean (95% CI)): 80.6 mg/kg | AUCED90 [3]: 111.5 μg · h · mL^−1 · day^−1 and 111.5 (106.6, 121.1) μg · h · mL^−1 · day^−1 | ED90 [3, 12]: 131.3 mg/kg and 131.3 (112.3, 156.7) mg/kg | Cmax [10]: 14 to 4145 ng/mL | EC50 [6, 14]: 550 nM

CCSCc1ccc2c(c1)c1c3c(c4c5cc(CSCC)ccc5n5c4c1n2[C@H]1C[C@](O)(C(=O)OC)[C@]5(C)O1)CNC3=O [CEP-1347]
Cmax ([2]; sc, 10 mg/kg): 830 ng/mL | Tmax ([2]; sc, 10 mg/kg): 4.8 h | Cmax ([2]; sc, 30 mg/kg): 730 ng/mL | Tmax ([2]; sc, 30 mg/kg): 6 h | DNAUC(0–t) [2, 15]: 0.98 (0.22) μg · h · mL^−1 · day^−1 | DNAUC(0–t) [2, 16]: 0.45 (0.092) μg · h · mL^−1 · day^−1 | AUC (0–t) [2, 15]: 8.1 (1.8) μg · h · mL | AUC (0–t) [2, 16]: 9.9 (2.1) μg · h · mL | reduction of parasitaemia versus vehicle [3]: did not reach statistical significance
